Laboratory results from patent publication EP4800018A1, “PAN-KRAS INHIBITOR AND USE THEREOF IN MEDICINES” (Betta Pharmaceuticals Co., Ltd., priority 2023, dated 2025).
Read-outs that look alike come from different tables or passages of the source.

How the values were obtained:
Assay type in all cases: cell-based
[1] = system: KRAS-G12D mutant tumor cells AGS; test: Cell Proliferation Inhibition Assay (AGS), Cell-titer GLO, 96 h; details: AGS cells, 96 h incubation, Cell-titer GLO, read-out: AGS(G12D)
Experimental: KRAS-G12D mutant tumor cells AGS were seeded in low-attachment 96-well plates at a cell density of 1×10^3 cells/well and cultured overnight in a cell culture incubator. […] After incubation at 37°C for 96 h, 50 µL of Cell-titer GLO working solution was added to each well, mixed by shaking, incubated at room temperature for 10 min, and the Luminescence value was read on a multi-function microplate reader. The luminescence data were calculated and converted into inhibition percent. The inhibition percent of cell proliferation was calculated according to the following formula: Inhibition Percent = (MaxValue−MeasuredValue)/(MaxValue−Blank) × 100% [formula] […] Curve fitting was performed using GraphPad Prism software to obtain IC50 values, see Table 1.

[2] = system: KRAS-G12V mutant tumor cells SW620; test: Cell Proliferation Inhibition Assay (SW620), Cell-titer GLO, 96 h; details: SW620 cells, 96 h incubation, Cell-titer GLO, read-out: SW620(G12V)
Experimental: KRAS-G12V mutant tumor cells SW620 were seeded in low-attachment 96-well plates at a cell density of 1×10^3 cells/well and cultured overnight in a cell culture incubator. After the cells adhered, the test compounds were added to the 96-well plates at final concentrations of 10000, 2000, 400, 80, 16, 3.2, 0.64, 0.13, 0.03, 0 nM (final concentration of DMSO was 0.5% for all). After incubation at 37°C for 96 h, 50 µL of Cell-titer GLO working solution was added to each well, mixed by shaking, incubated at room temperature for 10 min, and the Luminescence value was read on a multi-function microplate reader. The luminescence data were calculated and converted into inhibition percent. The inhibition percent of cell proliferation was calculated according to the following formula: Inhibition Percent = (MaxValue−MeasuredValue)/(MaxValue−Blank) × 100% [formula]
("Max Value" comes from the 0.5% DMSO control well, "Blank" comes from the blank control well, and "Measured Value" comes from the compound-treated well).
Curve fitting was performed using GraphPad Prism software to obtain IC50 values, see Table 1.

[3] = target: T1, KRAS G12V-cRAF (Homo sapiens, UniProt P01116, G12V); test: Cellular KRAS G12V-cRAF Binding Inhibition Assay (NanoBRET, AD293 stable cells); details: 3 h incubation, read-out: NanoBRET KRAS G12V
T1 construct: expressed in transfected cells
Experimental: NanoLuc® luciferase was used as the energy donor, and NanoBRET™ 618 fluorescent ligand labeled with the HaloTag® protein was used as the energy acceptor to detect protein-protein interactions in living cells. […] Except for wells with medium added as a blank control, NanoBRET™ 618 fluorescent ligand was added to all other wells, and the plates were cultured overnight in a cell culture incubator. […] The luminescence data were calculated and converted into inhibition percent. The inhibition percent of KRAS G12V-cRAF binding was calculated according to the following formula: Inhibition Percent = (MaxValue−MeasuredValue)/(MaxValue−Blank) × 100% [formula] […] Curve fitting was performed using GraphPad Prism software to obtain IC50 values, see Table 1.

[4] = target: T2, KRAS G12D-cRAF (Homo sapiens, UniProt P01116, G12D); test: Cellular KRAS G12D-cRAF Binding Inhibition Assay (NanoBRET, AD293 stable cells); details: 3 h incubation, read-out: NanoBRET KRAS G12D
T2 construct: expressed in transfected cells
Experimental: NanoLuc® luciferase was used as the energy donor, and NanoBRET™ 618 fluorescent ligand labeled with the HaloTag® protein was used as the energy acceptor to detect protein-protein interactions in living cells. AD293 stable cells transfected with KRAS G12D-NanoLuc® luciferase and cRAF RBD-HaloTag® tag protein were seeded in 96-well plates at a cell density of 1×10^4 cells/well. Except for wells with medium added as a blank control, NanoBRET™ 618 fluorescent ligand was added to all other wells, and the plates were cultured overnight in a cell culture incubator. […] The luminescence data were calculated and converted into inhibition percent. The inhibition percent of KRAS G12D-cRAF binding was calculated according to the following formula: Inhibition Percent = (MaxValue−MeasuredValue)/(MaxValue−Blank) × 100% [formula] […] Curve fitting was performed using GraphPad Prism software to obtain IC50 values, see Table 1.

T2 sequence (P01116 1-188 isoform P01116-2 G12D): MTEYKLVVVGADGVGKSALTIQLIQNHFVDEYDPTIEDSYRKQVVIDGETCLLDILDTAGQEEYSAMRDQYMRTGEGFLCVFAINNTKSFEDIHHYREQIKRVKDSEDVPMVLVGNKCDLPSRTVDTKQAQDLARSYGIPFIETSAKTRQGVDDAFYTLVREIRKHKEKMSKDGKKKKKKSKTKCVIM
T1 sequence (P01116 1-188 isoform P01116-2 G12V): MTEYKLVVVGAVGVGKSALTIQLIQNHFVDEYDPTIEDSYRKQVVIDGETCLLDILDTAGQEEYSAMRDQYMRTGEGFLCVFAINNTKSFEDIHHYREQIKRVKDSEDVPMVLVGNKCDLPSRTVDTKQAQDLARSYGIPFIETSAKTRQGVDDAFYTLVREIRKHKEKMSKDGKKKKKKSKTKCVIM

Row | Compound | IC50 ([1]; Homo sapiens, AGS, 96 h) [nM] | IC50 ([2]; Homo sapiens, SW-620, 96 h) [nM] | IC50 [3] [nM] | IC50 [4] [nM] | IC50 [1] [nM] | IC50 [2] [nM]
1 | CC1OCCCn2c(c3c4cc(ccc42)-c2csc(n2)CC(NC(=O)C2CC2C(F)F)C(=O)N2CCCC(N2)C(=O)OCC(C)(C)C3)-c2cc(N3CC[S+]([O-])CC3)cnc21 [Example 134, (1S,2S)-2-(difluoromethyl)-N-(((1^5S,6^3S,4S,Z)-1^5,10,10-trimethyl-1^2-(1-oxidothiomorpholino)-5,7-dioxo-1^8,1^9,6^1,6^2,6^3,6^4,6^5,6^6-octahydro-1^5H,1^7H-8-oxa-1(13,15)-pyrido[3',2':7,8][1,5]oxazonino[5,6-alindola-2(4,2)-thiazola-6(1,3)-pyridazinacycloundecaphane-4-yl)cyclopropane-1-carboxamide] | 1.7 | 1.44 | 59 | 13.7 | – | –
2 | COC1CCN(c2cnc3c(c2)-c2c4c5cc(ccc5n2CCCOC3C)-c2csc(n2)CC(NC(=O)C2CC2C(F)F)C(=O)N2CCCC(N2)C(=O)OCC(C)(C)C4)C1 [Example 136, (1S,2S)-2-(difluoromethyl)-N-((1^5S,6^3S,4S,Z)-1^2-((S)-3-methoxypyrrolidin-1-yl)-1^5,10,10-trimethyl-5,7-dioxo-1^8,1^9,6^1,6^2,6^3,6^4,6^5,6^6-octahydro-1^5H,1^7H-8-oxa-1(13,15)-pyrido[3',2':7,8][1,5]oxazonino[5,6-alindola-2(4,2)-thiazola-6(1,3)-pyridazinacycloundecaphane-4-yl)cyclopropane-1-carboxamide] | – | – | 19.6 | 4.59 | 5.6 | 1.5
3 | CC1OCCCn2c(c3c4cc(ccc42)-c2csc(n2)CC(NC(=O)C24CC(C)(C2)C4)C(=O)N2CCCC(N2)C(=O)OCC(C)(C)C3)-c2cc(N3CCN(C4CC4)CC3)cnc21 [Example 40, N-((1^5S,6^3S,4S,Z)-1^2-(4-cyclopropylpiperazin-1-yl)-1^5,10,10-trimethyl-5,7-dioxo-1^8,1^9,6^1,6^2,6^3,6 ^4,6^5,6^6-octahydro-1^5H,1^7H-8-oxa-1(13,15)-pyrido[3',2':7,8][1,5]oxazonino[5,6-a]indola-2(4,2)-thiazola-6(1,3)-pyridazinacycloundecaphane-4-yl)-3-methylbicyclo[1.1.1]pentane-1-carboxamide] | 22.4 | 4.29 | 61.1 | 15.8 | – | –
4 | CC1OCCCn2c(c3c4cc(ccc42)-c2csc(n2)CC(NC(=O)C2C(C)C2C)C(=O)N2CCCC(N2)C(=O)OCC(C)(C)C3)-c2cc(N3CC(C)N(C)C(C)C3)cnc21 [Example 165, (1r,2R,3S)-2,3-dimethyl-N-((1^5S,6^3S,4S,Z)-1^5,10,10-trimethyl-5,7-dioxo-1^2-((3S,5R)-3,4,5-trimethylpiperazin-1-yl)-1^8,1^9,6^1,6^2,6^3,6^4,6^5,6^6-octahydro-1^5H,1^7H-8-oxa-1(13,15)-pyrido[3',2':7,8][1, 5]oxazonino[5,6-a]indola-2(4,2)-thiazola-6(1,3)-pyridazinacycloundecaphane-4-yl)cyclopropane-1-carboxamide] | 0.19 | 0.05 | 3.8 | 0.76 | – | –
5 | CCN1CCN(c2cnc3c(c2)-c2c4c5cc(ccc5n2CCCOC3C)-c2csc(n2)CC(NC(=O)C23COC(C)(C2)C3)C(=O)N2CCCC(N2)C(=O)OCC(C)(C)C4)CC1 [Example 124, (1S,4r)-N-((1^5S,6^3S,4S,Z)-1^2-(4-ethylpiperazin-1-yl)-1^5,10,10-trimethyl-5,7-dioxo-1^8,1^9,6^1,6^2,6^3, 6^4,6^5,6^6-octahydro-1^5H,1^7H-8-oxa-1(13,15)-pyrido[3',2':7,8][1,5]oxazonino[5,6-a]indola-2(4,2)-thiazola-6(1,3)-pyridazinacycloundecaphane-4-yl)-1-methyl-2-oxabicyclo[2.1.1]hexane-4-carbox amide] | 4.67 | 1.45 | 18 | 8.38 | – | –
6 | CCN1CCN(c2cnc3c(c2)-c2c4c5cc(ccc5n2CCCOC3C)-c2csc(n2)CC(NC(=O)C2CC2C)C(=O)N2CCCC(N2)C(=O)OCC(C)(C)C4)CC1 [Example 21, (1S,2S)-N-((1^5S,6^3S,4S,Z)-12-(4-ethylpiperazin-1-yl)-1^5,10,10-trimethyl-5,7-dioxo-1^8,1^9,6^1,6^2,6^3 ,6^4,6^5,6^6-octahydro-1^5H,1^7H-8-oxa-1(13,15)-pyrido[3',2':7,8][1,5]oxazonino[5,6-a]indola-2(4,2)-thiazola-6(1,3)-pyridazinacycloundecaphane-4-yl)-2-methylcyclopropane-1-carboxamide] | 2.19 | 1.46 | 15.1 | 3.95 | – | –
7 | CC1OCCCn2c(c3c4cc(ccc42)-c2csc(n2)CC(NC(=O)C2CC2C(F)F)C(=O)N2CCCC(N2)C(=O)OCC(C)(C)C3)-c2cc(N3CCN(C(C)C)CC3)cnc21 [Example 86, (1S,2S)-2-(difluoromethyl)-N-((1^5S,6^3S,4S,Z)-1^2-(4-isopropylpiperazin-1-yl)-1^5,10,10-trimethyl-5,7-dioxo-1^8,1^9,6^1,6^2,6^3,6^4,6^5,6^6-octahydro-1^5H,1^7H-8-oxa-1(13,15)-pyrido[3',2':7,8][1,5]oxazonino[5,6-a]indola-2(4,2)-thiazola-6(1,3)-pyridazinacycloundecaphane-4-yl)cyclopropane-1-carbox amide] | 1.19 | 0.17 | 11 | 2.19 | – | –
8 | CC1OCCCn2c(c3c4cc(ccc42)-c2csc(n2)CC(NC(=O)C2CC2C(F)F)C(=O)N2CCCC(N2)C(=O)OCC(C)(C)C3)-c2cc(N(C)CCN(C)C)cnc21 [Example 87, (1S,2S)-2-(difluoromethyl)-N-((1^5S,6^3S,4S,Z)-1^2-((2-(dimethylamino)ethyl)(methyl)amino)-1^5,1 0,10-trimethyl-5,7-dioxo-1^8,1^9,6^1,6^2,6^3,6^4,6^5,6^6-octahydro-1^5H,1^7H-8-oxa-l(13,15)-pyrido[3',2':7 ,8][1,5]oxazonino[5,6-a]indola-2(4,2)-thiazola-6(1,3)-pyridazinacycloundecaphane-4-yl)cyclopr opane-1-carboxamide] | 8.3 | 2.75 | 184 | 38.8 | – | –
9 | CC1OCCCn2c(c3c4cc(ccc42)-c2csc(n2)CC(NC(=O)C2CC2C(F)F)C(=O)N2CCCC(N2)C(=O)OCC(C)(C)C3)-c2cc(N3CCNCC3)cnc21 [Example 112, (1S,2S)-2-(difluoromethyl)-N-((1^5S,6^3S,4S,Z)-1^5,10,10-trimethyl-5,7-dioxo-1^2-(piperazin-1-yl)-1 ^8,1^9,6^1,6^2,6^3,6^4,6^5,6^6-octahydro-1^5H,1^7H-8-oxa-1(13,15)-pyrido[3',2':7,8][1,5]oxazonino[5,6-a]indola-2(4,2)-thiazola-6(1,3)-pyridazinacycloundecaphane-4-yl)cyclopropane-1-carboxamide] | 2.68 | 0.34 | 34.2 | 8.39 | – | –
